Data as given in patent US10106510B2, “Substituted isoxazoles for treating cancer” (EPIZYME, INC., priority 2014, dated 2018).

Columns and labels:
SMYD3 [1] = target: T1, SMYD3 (Homo sapiens (Human), UniProt Q9H7B4); assay: SMYD3 biochemical assay (SMYD3 enzyme assay on MEKK2 protein substrate, scintillation proximity assay); conditions: 3H-SAM, SPA, IC50 values are an average of n = 1 to n = 50, read-out: SMYD3 Biochem IC50
SMYD3 [2] = target: T1, SMYD3; assay: SMYD3 cell assay (Trimethyl-MEKK2 In-Cell Western in 293T/17 cells); assay type: cell-based; conditions: 293T/17 cells transfected with MEKK2-flag and SMYD3, trimethyl-MEKK2 In-Cell Western, 24 hours, top concentration 40 μM; average of n = 1 to n = 50
Excerpt: Trimethyl-MEKK2-In-Cell Western Assay
293T/17 adherent cells were purchased from ATCC (American Type Culture Collection), Manassas, Va., USA. MEM/Glutamax medium, Optimem Reduced Serum medium, penicillin-streptomycin, 0.05% trypsin and 1×D-PBS were purchased from Life Technologies, Grand Island, N.Y., USA. PBS-10× was purchased from Ambion, Life Technologies, Grand Island, N.Y., USA. PBS with Tween 20 (PBST (10×)) was purchased from KPL, Gaithersburg, Md., USA. Tet System FBS-approved FBS US Source was purchased from Clontech, Mountain View, Calif., USA. Odyssey blocking buffer, 800 CW goat anti-rabbit IgG (H+L) antibody, 680 CW Goat anti-mouse IgG (H+L) and Licor Odyssey infrared scanner were purchased from Licor Biosciences, Lincoln, Nebr., USA. Tri-methyl-Lysine [A260]-MEKK2 antibody, MEKK2 and SMYD3 plasmids were made at Epizyme. Anti-flag monoclonal mouse antibody was purchased from Sigma, St. Louis, Mo., USA. Methanol was purchased from VWR, Franklin, Mass., USA. 10%) Tween 20 was purchased from KPL, Inc., Gaithersburg, Md., USA. Fugene was purchased from Promega, Madison, Wis., USA. The Biotek ELx405 was purchased from BioTek, Winooski, Vt., USA. The multidrop combi was purchased from Thermo Scientific, Waltham, Mass., USA.
293T/17 adherent cells were maintained in growth medium (MEM/Glutamax medium supplemented with 10% v/v Tet System FBS and cultured at 37° C. under 5% CO2.
Cell Treatment, In Cell Western (ICW) for Detection of Trimethyl-Lysine-MEKK2 and MEKK2
293T/17 cells were seeded in assay medium at a concentration of 33,333 cells per cm^2 in 30 mL medium per T150 flask and incubated at 37° C. under 5% CO2. Plasmids were prepared for delivery to cells by first mixing 1350 μL Opti-MEM with Fugene (81 μL) in a sterile Eppendorf and incubated for five minutes at room temperature (RT). MEKK2-flag (13.6 ug/T150) MEKK2 p3XFlag-CMV-14 with C-3XFlag and SMYD3 (0.151 ug/T150) SMYD3 p3XFlag-CMV-14 without C-3XFlag plasmids were aliquotted to a 1.7 mL sterile microfuge tube. The gene ID for MEKK2 and SMYD3 is NM_006609.3 and Q9H7B4, respectively. Entire volume of Opti-MEM/Fugene mixture was then added to a microfuge tube containing DNA plasmid, mixed and then incubated××15 minutes at RT. The medium on the 293T/17 cells was refreshed, and the DNA/Fugene complex is added aseptically to each flask, rocked gently, and incubated at 37 C for 5 hours. Medium was then removed, and cells were washed once with PBS in the flask. Trypsin 0.05% (3 mL) was added and cells incubated for three minutes. Room temperature MEM+10% Tet system FBS was added and cells were mixed gently, and counted using the Vi-cell. Cells were seeded at 100,000 cells/mL in 50 μL MEM/10% Tet FBS/Pen/Strep to a 384 well black/clear poly-D-lysine coated plate containing test agent diluted in DMSO. The final top concentration of test compound was 40 μM. […] Plates were incubated ×30 minutes at RT in low-airflow area, followed by incubation at 37° C. under 5% CO2 for 24 hours. Medium was aspirated from all wells of assay plates prior to fixation and permeabilization with ice cold (−20° C.) methanol (90 μL/well) for ten minutes. Plates were rinsed with PBS three times on BioTek ELx405. PBS was removed with a final aspiration, and Odyssey blocking buffer (50 μL/well) was added to each well and incubated for one hour at RT. Primary antibody solution was prepared (anti-trimethyl-MEKK2 at 1:600 dilution plus mouse anti-flag antibody at 1:10,000 dilution in diluent (Odyssey Blocking buffer+0.1% Tween 20)) and 20 μL per well was dispensed using the Multidrop Combi. Assay plates were then sealed with foil, and incubated overnight at 4° C. Plates were washed five times with PBS-Tween (IX) on Biotek ELx405 and blotted on paper towel to remove excess reagent. […]

T1 sequence (Q9H7B4 whole entry): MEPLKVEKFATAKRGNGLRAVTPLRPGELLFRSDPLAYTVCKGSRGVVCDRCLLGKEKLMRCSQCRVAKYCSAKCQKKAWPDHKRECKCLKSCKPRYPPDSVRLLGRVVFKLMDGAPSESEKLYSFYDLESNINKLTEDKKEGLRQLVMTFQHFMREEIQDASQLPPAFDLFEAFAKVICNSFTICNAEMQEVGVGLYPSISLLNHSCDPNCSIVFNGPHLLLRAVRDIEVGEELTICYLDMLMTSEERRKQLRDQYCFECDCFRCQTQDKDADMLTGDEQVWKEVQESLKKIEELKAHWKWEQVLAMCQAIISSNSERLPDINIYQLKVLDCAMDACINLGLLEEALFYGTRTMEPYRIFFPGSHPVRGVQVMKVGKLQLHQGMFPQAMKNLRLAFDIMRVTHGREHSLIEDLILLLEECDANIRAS

Structure (SMILES): NCCCN(C(=O)CCN)[C@H]1CC[C@H](NC(=O)c2cc(C3CC3)on2)CC1 [compound 33, N-((1r,4r)-4-(3-amino-N-(3-aminopropyl)propanamido)cyclohexyl)-5-cyclopropylisoxazole-3-carboxamide]
- IC50 (SMYD3 [1]): 428 nM
- IC50 (SMYD3 [2]): > 40000 nM

Structure (SMILES): CCc1cc(C(=O)N[C@H]2CC[C@H](NC(=O)C[C@@H](C)N)C[C@H]2CC)no1 (mixture of isomers) [Cpd. No. 6, Mixture of N-((1S,2R,4S)-4-((R)-3-aminobutanamido)-2-ethylcyclohexyl)-5-ethylisoxazole-3-carboxamide and N-((1R,2S,4R)-4-((R)-3-aminobutanamido)-2-ethylcyclohexyl)-5-ethyl-isoxazole-3-carboxamide; (1S,2R,4S) isomer is depicted]
- IC50 (SMYD3 [1]): 97.3 nM
- IC50 (SMYD3 [2]): 964 nM

Structure (SMILES): C[C@@H](N)CC(=O)N[C@H]1CC[C@H](NC(=O)c2cc(C3CC3)on2)CC1 [compound 5, N-((1R,4r)-4-((R)-3-aminobutanamido)cyclohexyl)-5-cyclopropylisoxazole-3-carboxamide]
- IC50 (SMYD3 [1]): 400 nM
- IC50 (SMYD3 [2]): 10100 nM

Structure (SMILES): O=C(CCN1CCCC1)N[C@H]1CC[C@H](NC(=O)c2cc(C3CC3)on2)CC1 [compound 11, 5-cyclopropyl-N-((1r,4r)-4-(3-(pyrrolidin-1-yl)propanamido)cyclohexyl)isoxazole-3-carboxamide]
- IC50 (SMYD3 [1]): 188 nM
- IC50 (SMYD3 [2]): 1970 nM

Structure (SMILES): C[C@@H](N)CC(=O)N[C@H]1CC[C@H](NC(=O)c2cc(C3CC3)on2)[C@H](Cc2ccccc2)C1 (mixture of isomers) [Cpd. No. 39, Mixture of N-((1S,2R,4S)-4-((R)-3-aminobutanamido)-2-benzylcyclohexyl)-5-cyclopropylisoxazole-3-carboxamide and N-((1R,2S,4R)-4-((R)-3-aminobutanamido)-2-benzylcyclohexyl)-5-cyclopropylisoxazole-3-carboxamide; (1S,2R,4S) isomer is depicted.]
- IC50 (SMYD3 [1]): 28.6 nM
- IC50 (SMYD3 [2]): 255 nM

Structure (SMILES): N[C@H]1CC[C@H](C(=O)N[C@H]2CC[C@H](NC(=O)c3cc(C4CC4)on3)CC2)C1 [compound 32, N-((1S,4r)-4-((1S,3S)-3-aminocyclopentane-1-carboxamido)cyclohexyl)-5-cyclopropylisoxazole-3-carboxamide]
- IC50 (SMYD3 [1]): 562 nM
- IC50 (SMYD3 [2]): 5150 nM
